Laboratory results published in PMC11589570, “Critical assessment of LC3/GABARAP ligands used for degrader development and ligandability of LC3/GABARAP binding pockets” (Nature Communications, 2024).
Where “and” joins values, the source holds several entries; their conditions need not be identical. Identical values can stand only once.

What was measured:
[1] = target: LC3C (Homo sapiens, UniProt Q9BXW4); experiment: FP assay with Cy5-labelled p62 LIR tracer (protein titration and tracer displacement); assay type: binding; conditions: for normalized FP signal, p62 LIR tracer displacement: LC3C, listed as 10O5; for compound titration LC3C (displacement curve, FP signal): two replicate columns per compound
LC3C, sequence (Q9BXW4 1-126): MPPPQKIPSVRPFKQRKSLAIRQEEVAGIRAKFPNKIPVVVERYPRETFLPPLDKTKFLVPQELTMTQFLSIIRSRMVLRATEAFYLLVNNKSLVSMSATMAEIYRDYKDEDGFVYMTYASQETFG

[2] = target: GABARAP (Homo sapiens, UniProt O95166); experiment: as above; assay type: binding; conditions: for normalized FP signal, p62 LIR tracer displacement: GABARAP; for compound titration GABARAP (displacement curve, FP signal): two replicate columns per compound
GABARAP, sequence (O95166 1-116): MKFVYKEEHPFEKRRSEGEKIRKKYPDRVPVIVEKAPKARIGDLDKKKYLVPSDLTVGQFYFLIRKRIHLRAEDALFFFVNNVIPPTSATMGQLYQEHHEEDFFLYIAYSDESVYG

[3] = target: GABARAPL1 (Homo sapiens, UniProt Q9H0R8); experiment: as above; assay type: binding; conditions: for normalized FP signal, p62 LIR tracer displacement: GABARAPL1; for compound titration GABARAPL1 (displacement curve, FP signal): two replicate columns per compound; for FP tracer displacement curve signal (compound titration): duplicate values
GABARAPL1, sequence (Q9H0R8 whole entry): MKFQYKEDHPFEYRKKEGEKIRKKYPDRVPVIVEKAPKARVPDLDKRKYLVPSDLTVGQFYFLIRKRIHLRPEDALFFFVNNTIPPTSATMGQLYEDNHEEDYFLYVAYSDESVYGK

[4] = target: LC3A (Homo sapiens, UniProt Q9H492); experiment: Isothermal titration calorimetry (ITC); assay type: binding; conditions: LC3A
[5] = system: RPE1 cells; experiment: Cell growth assay (IncuCyte confluence over 72 h); assay type: cell-based; conditions: listed as 10O5
Outline: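 Phase confluence (% area covered by cells) imaged every 2 h for 72 h after compound addition; cells in DMEM/10% FBS, seeded 24 h before treatment. Controls were 0.1% DMSO, 250 nM Torin1 and 200 ng/mL Bafilomycin (final). Each point averages three wells.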

[6] = target: GABARAPL2 (Homo sapiens, UniProt P60520); experiment: FP assay with Cy5-labelled p62 LIR tracer (protein titration and tracer displacement); conditions: GABARAPL2
GABARAPL2, sequence (P60520 whole entry): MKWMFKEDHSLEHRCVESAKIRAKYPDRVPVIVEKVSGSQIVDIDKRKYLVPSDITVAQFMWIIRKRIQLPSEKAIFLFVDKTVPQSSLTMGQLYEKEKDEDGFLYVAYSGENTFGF

[7] = log10 concentration [M] -3.82391
[8] = log10 concentration [M] -4.1549
[9] = log10 concentration [M] -4.60206
[10] = log10 concentration [M] -5.30103
[11] = log10 concentration [M] -5.69897
[12] = log10 concentration [M] -6.22185
[13] = log10 concentration [M] -6.69897
[14] = log10 concentration [M] -7.30103
[15] = log10 concentration [M] -7.79588
[16] = log10 concentration [M] -8.08092
[17] = log10 concentration [M] -3.82391, listed as 10O5
[18] = log10 concentration [M] -4.1549, listed as 10O5
[19] = log10 concentration [M] -4.60206, listed as 10O5
[20] = log10 concentration [M] -5, listed as 10O5
[21] = log10 concentration [M] -5.30103, listed as 10O5
[22] = log10 concentration [M] -5.69897, listed as 10O5
[23] = log10 concentration [M] -6.22185, listed as 10O5
[24] = log10 concentration [M] -6.69897, listed as 10O5
[25] = log10 concentration [M] -7.79588, listed as 10O5
[26] = log10 concentration [M] -8.08092, listed as 10O5
[27] = log10 concentration [M] -7.30103, listed as 10O5

O=C1Nc2ccc(I)cc2C1=Cc1cc(Br)c(O)c(Br)c1 [compound 4]
normalized FP signal, p62 LIR tracer displacement [1, 7]: 72 and 75.2
normalized FP signal, p62 LIR tracer displacement [1, 8]: 84 and 83
normalized FP signal, p62 LIR tracer displacement [1, 9]: 88.8 and 96.4
normalized FP signal, p62 LIR tracer displacement ([1]; log10 concentration [M] -5): 88.2 and 92
normalized FP signal, p62 LIR tracer displacement [1, 10]: 89.2 and 95.2
normalized FP signal, p62 LIR tracer displacement [1, 11]: 86.6 and 88
normalized FP signal, p62 LIR tracer displacement [1, 12]: 92 and 91.4
normalized FP signal, p62 LIR tracer displacement [1, 13]: 94.6 and 95.8
normalized FP signal, p62 LIR tracer displacement [1, 14]: 94.2 and 92.8
normalized FP signal, p62 LIR tracer displacement [1, 15]: 92 and 89
normalized FP signal, p62 LIR tracer displacement [1, 16]: 93.2 and 93.6
compound titration LC3C (displacement curve, FP signal) [1, 7]: 72 and 75.2
compound titration LC3C (displacement curve, FP signal) [1, 8]: 84 and 83
compound titration LC3C (displacement curve, FP signal) [1, 9]: 88.8 and 96.4
compound titration LC3C (displacement curve, FP signal) ([1]; log10 concentration [M] -5): 88.2 and 92
compound titration LC3C (displacement curve, FP signal) [1, 10]: 89.2 and 95.2
compound titration LC3C (displacement curve, FP signal) [1, 11]: 86.6 and 88
compound titration LC3C (displacement curve, FP signal) [1, 12]: 92 and 91.4
compound titration LC3C (displacement curve, FP signal) [1, 13]: 94.6 and 95.8
compound titration LC3C (displacement curve, FP signal) [1, 14]: 94.2 and 92.8
compound titration LC3C (displacement curve, FP signal) [1, 15]: 92 and 89
compound titration LC3C (displacement curve, FP signal) [1, 16]: 93.2 and 93.6
normalized FP signal, p62 LIR tracer displacement [2, 17]: 56.3793 and 55.1724
normalized FP signal, p62 LIR tracer displacement [2, 18]: 77.5862 and 81.7241
normalized FP signal, p62 LIR tracer displacement [2, 19]: 88.4483 and 91.2069
normalized FP signal, p62 LIR tracer displacement [2, 20]: 92.4138 and 92.2414
normalized FP signal, p62 LIR tracer displacement [2, 21]: 93.9655 and 94.4828
normalized FP signal, p62 LIR tracer displacement [2, 22]: 85.8621 and 86.7241
normalized FP signal, p62 LIR tracer displacement [2, 23]: 92.2414 and 93.1034
normalized FP signal, p62 LIR tracer displacement [2, 24]: 96.7241 and 92.4138
normalized FP signal, p62 LIR tracer displacement [2, 14]: 97.069
normalized FP signal, p62 LIR tracer displacement [2, 25]: 90.8621 and 91.5517
normalized FP signal, p62 LIR tracer displacement [2, 26]: 93.2759 and 95
compound titration GABARAP (displacement curve, FP signal) [2, 7]: 56.3793 and 55.1724
compound titration GABARAP (displacement curve, FP signal) [2, 8]: 77.5862 and 81.7241
compound titration GABARAP (displacement curve, FP signal) [2, 9]: 88.4483 and 91.2069
compound titration GABARAP (displacement curve, FP signal) ([2]; log10 concentration [M] -5): 92.4138 and 92.2414
compound titration GABARAP (displacement curve, FP signal) [2, 10]: 93.9655 and 94.4828
compound titration GABARAP (displacement curve, FP signal) [2, 11]: 85.8621 and 86.7241
compound titration GABARAP (displacement curve, FP signal) [2, 12]: 92.2414 and 93.1034
compound titration GABARAP (displacement curve, FP signal) [2, 13]: 96.7241 and 92.4138
compound titration GABARAP (displacement curve, FP signal) [2, 14]: 97.069
compound titration GABARAP (displacement curve, FP signal) [2, 15]: 90.8621 and 91.5517
compound titration GABARAP (displacement curve, FP signal) [2, 16]: 93.2759 and 95
normalized FP signal, p62 LIR tracer displacement [3, 17]: 50.4286 and 47.7143
normalized FP signal, p62 LIR tracer displacement [3, 18]: 71.5714 and 73.7143
normalized FP signal, p62 LIR tracer displacement [3, 19]: 89.5714 and 91.4286
normalized FP signal, p62 LIR tracer displacement [3, 20]: 97.1429 and 94.8571
normalized FP signal, p62 LIR tracer displacement [3, 21]: 95.1429 and 97.7143
normalized FP signal, p62 LIR tracer displacement [3, 22]: 91.7143 and 95.8571
normalized FP signal, p62 LIR tracer displacement [3, 23]: 93.8571 and 96
normalized FP signal, p62 LIR tracer displacement [3, 24]: 97.2857 and 99.8571
normalized FP signal, p62 LIR tracer displacement [3, 27]: 99.2857 and 97.7143
normalized FP signal, p62 LIR tracer displacement [3, 15]: 97
normalized FP signal, p62 LIR tracer displacement [3, 26]: 97.1429 and 98.4286
compound titration GABARAPL1 (displacement curve, FP signal) [3, 7]: 50.4286 and 47.7143
compound titration GABARAPL1 (displacement curve, FP signal) [3, 8]: 71.5714 and 73.7143
compound titration GABARAPL1 (displacement curve, FP signal) [3, 9]: 89.5714 and 91.4286
compound titration GABARAPL1 (displacement curve, FP signal) ([3]; log10 concentration [M] -5): 97.1429 and 94.8571
FP tracer displacement curve signal (compound titration) [3, 22]: 91.7143 and 95.8571
FP tracer displacement curve signal (compound titration) [3, 23]: 93.8571 and 96
FP tracer displacement curve signal (compound titration) [3, 24]: 97.2857 and 99.8571
FP tracer displacement curve signal (compound titration) [3, 27]: 99.2857 and 97.7143
FP tracer displacement curve signal (compound titration) [3, 15]: 97
FP tracer displacement curve signal (compound titration) [3, 26]: 97.1429 and 98.4286
outcome of ITC titration [4]: low solubility in the buffer system
outcome of ITC titration ([4]; listed as 10O5): induced protein precipitation
RPE1 cell growth ([5]; 100 nM, 0 h): 16 and 14
RPE1 cell growth ([5]; 100 nM, 2 h): 20 and 13 and 18
RPE1 cell growth ([5]; 100 nM, 4 h): 23 and 14 and 19
RPE1 cell growth ([5]; 100 nM, 6 h): 26 and 14 and 18
RPE1 cell growth ([5]; 100 nM, 8 h): 27 and 16 and 19
RPE1 cell growth ([5]; 100 nM, 10 h): 28 and 17 and 21
RPE1 cell growth ([5]; 500 nM, 0 h): 20 and 18 and 16
RPE1 cell growth ([5]; 500 nM, 2 h): 24 and 18
RPE1 cell growth ([5]; 500 nM, 4 h): 27 and 19
RPE1 cell growth ([5]; 500 nM, 6 h): 29 and 20 and 19
RPE1 cell growth ([5]; 500 nM, 8 h): 32 and 21 and 20
RPE1 cell growth ([5]; 500 nM, 10 h): 35 and 22
RPE1 cell growth ([5]; 1 uM, 0 h): 15 and 13 and 19
RPE1 cell growth ([5]; 1 uM, 2 h): 18 and 17
RPE1 cell growth ([5]; 1 uM, 4 h): 20 and 18
RPE1 cell growth ([5]; 1 uM, 6 h): 21 and 24 and 20
RPE1 cell growth ([5]; 1 uM, 8 h): 21 and 25 and 22
RPE1 cell growth ([5]; 1 uM, 10 h): 23 and 26 and 22
RPE1 cell growth ([5]; 1 uM, 12 h): 25
RPE1 cell growth ([5]; 3 uM, 0 h): 13 and 19 and 16
RPE1 cell growth ([5]; 3 uM, 2 h): 17 and 19
RPE1 cell growth ([5]; 3 uM, 4 h): 20 and 18
RPE1 cell growth ([5]; 3 uM, 6 h): 23 and 21 and 19
RPE1 cell growth ([5]; 3 uM, 8 h): 26 and 20 and 19
RPE1 cell growth ([5]; 3 uM, 10 h): 27 and 24 and 21
RPE1 cell growth ([5]; 3 uM, 12 h): 30 and 23
RPE1 cell growth ([5]; 5 uM, 0 h): 16 and 15 and 17
RPE1 cell growth ([5]; 5 uM, 2 h): 20 and 16 and 19
RPE1 cell growth ([5]; 5 uM, 4 h): 21 and 17
RPE1 cell growth ([5]; 5 uM, 6 h): 24 and 17 and 20
RPE1 cell growth ([5]; 5 uM, 8 h): 29 and 19 and 21
RPE1 cell growth ([5]; 5 uM, 10 h): 28 and 19 and 23
RPE1 cell growth ([5]; 10 uM, 0 h): 16 and 21 and 17
RPE1 cell growth ([5]; 10 uM, 2 h): 22 and 20
RPE1 cell growth ([5]; 10 uM, 4 h): 25 and 21 and 22
RPE1 cell growth ([5]; 10 uM, 6 h): 29 and 22
RPE1 cell growth ([5]; 10 uM, 8 h): 30 and 26 and 23
RPE1 cell growth ([5]; 10 uM, 10 h): 31 and 28 and 24
interaction in FP displacement assay [6]: weak interaction
normalized FP signal, p62 LIR tracer displacement [6, 17]: 56 and 50.4
normalized FP signal, p62 LIR tracer displacement [6, 18]: 57.2 and 62.4
normalized FP signal, p62 LIR tracer displacement [6, 19]: 87.2 and 100.4
normalized FP signal, p62 LIR tracer displacement [6, 20]: 94.4 and 99.2
normalized FP signal, p62 LIR tracer displacement [6, 21]: 99.6 and 96
normalized FP signal, p62 LIR tracer displacement [6, 22]: 86.4 and 92.4
normalized FP signal, p62 LIR tracer displacement [6, 12]: 100.4
normalized FP signal, p62 LIR tracer displacement [6, 23]: 93.6
normalized FP signal, p62 LIR tracer displacement [6, 24]: 96 and 103.2
normalized FP signal, p62 LIR tracer displacement [6, 27]: 102.4 and 90.4
normalized FP signal, p62 LIR tracer displacement [6, 15]: 94.8
normalized FP signal, p62 LIR tracer displacement [6, 25]: 95.2
normalized FP signal, p62 LIR tracer displacement [6, 26]: 111.2 and 97.6
